Measured values published in patent US8658675B2, “Pyridin-4-yl derivatives” (Actelion Pharmaceuticals Ltd., priority 2009, dated 2014).

Legend:
rat trachea rings [1] = assay: Measurement of isometric force development: rat trachea ring constriction; parameters: species or system Female Wistar rats; settings: compound at 10 μM; in % of the constriction induced by 50 mM KCl
human S1P1 receptor = human S1P1 receptor (Homo sapiens, UniProt P21453); assay: GTPγS assay to determine EC50 values; assay type: biochemical; settings: membranes of CHO cells expressing recombinant human S1P1 receptor; 35S-GTPγS binding
Experimental: GTPγS binding assays are performed in 96 well microtiter plates (Nunc, 442587) in a final volume of 200 μl, using membrane preparations of CHO cells expressing recombinant human S1P1 receptor. Assay conditions are 20 mM Hepes (Fluka, 54461), 100 mM NaCl (Fluka, 71378), 5 mM MgCl2 (Fluka, 63064), 0.1% BSA (Calbiochem, 126609), 1 μM GDP (Sigma, G-7127), 2.5% DMSO (Fluka, 41644), […] ^35S-GTPγS (Amersham Biosciences, SJ1320). The pH is 7.4. Test compounds are dissolved and diluted in 100% DMSO and pre-incubated at room temperature for 30 min in 150 μl of the above assay buffer, in the absence of ^35S-GTPγS. After addition of 50 μl of ^35S-GTPγS, the assay is incubated for 1 h at rt. The assay is terminated by transfer of the reaction mixture to a Multiscreen plate (Millipore, MAHFC1H60) using a cell harvester from Packard Biosciences, and the plates are washed with ice-cold 10 mM Na2HPO4/NaH2PO4 (70%/30%), dried, sealed at the bottom and, after addition of 25 μl MicroScint20 (Packard Biosciences, order#6013621), sealed on the top. Membrane-bound ^35S-GTPγS is measured with a TopCount from Packard Biosciences.
EC50 is the concentration of agonist inducing 50% of the maximal specific ^35S-GTPγS binding. Specific binding is determined by subtracting non-specific binding from maximal binding. Maximal binding is the amount of cpm bound to the Multiscreen plate in the presence of 10 μM of S1P. Non-specific binding is the amount of binding in the absence of an agonist in the assay.
Agonistic activities (EC50 values) of all exemplified compounds have been measured.

circulating lymphocytes = assay: Assessment of in vivo efficacy: circulating lymphocytes after oral administration; parameters: species or system normotensive male Wistar rats; settings: Rattus norvegicus, Lymphocyte; 6 h after oral administration of 10 mg/kg, male Wistar rats, compared to vehicle group; read-out: Lymphocyte counts
Experimental: The efficacy of the compounds of Formula (I) is assessed by measuring the circulating lymphocytes after oral administration of 3 to 30 mg/kg of a compound of Formula (I) to normotensive male Wistar rats. The animals are housed in climate-controlled conditions with a 12 h-light/dark cycle, and have free access to normal rat chow and drinking water. Blood is collected before and 3, 6 and 24 h after drug administration. Full blood is subjected to hematology using Advia Hematology system (Bayer Diagnostics, Zurich, Switzerland).
All data are presented as mean±SEM. Statistical analyses are performed by analysis of variance (ANOVA) using Statistica (StatSoft) and the Student-Newman-Keuls procedure for multiple comparisons. The null hypothesis is rejected when p<0.05.
Lymphocyte counts 6 h after oral administration have been measured for 23 out of 30 exemplified compounds and are in the range of −42% to −80% with an average of −63%.

rat trachea rings [2] = assay: Measurement of isometric force development: rat trachea ring constriction; parameters: species or system Female Wistar rats; settings: for % trachea constriction at 1 μM: compound at 1 μM, in % of the constriction induced by 50 mM KCl; for potential to constrict rat trachea rings (comparison in words): compared to closest prior art analogues of WO 2008/029371 or to Example 2
Experimental: Animals were obtained from RCC Ltd (Füllinsdorf, Switzerland). Female Wistar rats were euthanized by exposure to CO2. The tracheae were excised and rings from the lower segments were prepared. Rings of trachea were suspended in tissue baths (10 mL) containing Krebs-Henseleit buffer of the following composition (mM): NaCl 115; KCl 4.7; MgSO4 1.2; KH2PO4 1.5; CaCl2 2.5; NaHCO3 25; glucose 10. Bathing solution was maintained at 37° C. and aerated with 95% O2/5% CO2 (pH 7.4). A resting force of 2 g (20 mN) was applied to the ring preparation, and changes in force generation were measured using an isometric force recorder (EMKA Technologies Inc, Paris, France). Viability of rings was assessed by exposure to a depolarizing concentration of KCl (50 mM). Contraction of trachea was expressed as a percentage of the response to KCl.
All compounds were prepared as stock solutions of 0.3 mM in pure DMSO. Compounds were added to the bath (10 mL) in a volume of 33 μL to give a final bath concentration of DMSO of 0.33%.
Contraction of trachea was measured for 15 out of 30 exemplified compounds.

Chain of human S1P1 receptor (P21453 whole entry): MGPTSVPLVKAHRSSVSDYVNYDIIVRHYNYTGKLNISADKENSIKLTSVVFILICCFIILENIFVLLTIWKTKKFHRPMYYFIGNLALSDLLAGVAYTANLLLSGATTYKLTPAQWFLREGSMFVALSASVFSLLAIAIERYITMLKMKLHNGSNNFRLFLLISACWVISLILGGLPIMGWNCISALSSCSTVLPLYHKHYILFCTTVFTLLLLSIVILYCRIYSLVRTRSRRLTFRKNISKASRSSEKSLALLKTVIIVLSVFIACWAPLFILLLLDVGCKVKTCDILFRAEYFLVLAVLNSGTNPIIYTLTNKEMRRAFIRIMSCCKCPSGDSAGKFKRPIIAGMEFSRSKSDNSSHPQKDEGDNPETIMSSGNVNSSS

Structure (SMILES)	% trachea constriction at 10 μM (rat trachea rings [1]) [%]	EC50 (human S1P1 receptor) [nM]	change in vivo at 10 mg/kg (circulating lymphocytes) [%]	% trachea constriction at 1 μM (rat trachea rings [2]) [%]	potential to constrict rat trachea rings (comparison in words) (rat trachea rings [2])
COc1cc(-c2nc(-c3cc(C)c(NS(C)(=O)=O)c(Cl)c3)no2)cc(C2CCCC2)n1 [Example 12, N-{2-Chloro-4-[5-(2-cyclopentyl-6-methoxy-pyridin-4-yl)-[1,2,4]oxadiazol-3-yl]-6-methyl-phenyl}-methanesulfonamide]	<5	0.3	-64	<5	–
CCc1cc(-c2noc(-c3cc(OC)nc(C(CC)CC)c3)n2)cc(C)c1OC[C@@H](O)CO [Example 1, (S)-3-(2-Ethyl-4-{5-[2-(1-ethyl-propyl)-6-methoxy-pyridin-4-yl]-[1,2,4]oxadiazol-3-yl}-6-methyl-phenoxy)-propane-1,2-diol]	24	2.7	-63	<5	significantly reduced potential to constrict rat trachea rings
CCc1cc(-c2noc(-c3cc(OC)nc(C(CC)CC)c3)n2)cc(C)c1OC[C@@H](O)CNC(=O)CO [Example 6, N-[(2S)-3-(2-Ethyl-4-{5-[2-(1-ethyl-propyl)-6-methoxy-pyridin-4-yl]-[1,2,4]oxadiazol-3-yl}-6-methyl-phenoxy)-2-hydroxy-propyl]-2-hydroxy-acetamide]	100	0.6	-59	<5	significantly reduced potential to constrict rat trachea rings
